Earlier results as cited in PMC3026871 (Cancer chemotherapy and pharmacology, 2010).

Target: Aurora A kinase in skin basal epithelial cells (Homo sapiens, UniProt O14965)
Conditions: subsequent studies, similar times, identical assays; cited from earlier work

Sequence of Aurora A kinase in skin basal epithelial cells (O14965 whole entry): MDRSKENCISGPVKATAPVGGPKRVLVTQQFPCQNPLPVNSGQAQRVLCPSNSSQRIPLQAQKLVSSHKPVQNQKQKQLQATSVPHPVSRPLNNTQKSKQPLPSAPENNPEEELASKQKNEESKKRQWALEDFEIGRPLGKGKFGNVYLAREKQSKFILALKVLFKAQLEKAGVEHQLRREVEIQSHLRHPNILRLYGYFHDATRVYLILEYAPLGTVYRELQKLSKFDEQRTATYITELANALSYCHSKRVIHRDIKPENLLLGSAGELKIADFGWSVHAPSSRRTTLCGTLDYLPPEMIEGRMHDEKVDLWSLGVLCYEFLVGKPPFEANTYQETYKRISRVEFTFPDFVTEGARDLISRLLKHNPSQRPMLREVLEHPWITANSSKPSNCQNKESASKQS

COc1cc(Nc2ncc3c(n2)-c2ccc(Cl)cc2C(c2c(F)cccc2OC)=NC3)ccc1C(=O)O [MLN8237]
pharmacodynamic activity in skin biopsies: dose-dependent pharmacodynamic activity in skin biopsies
